In EP2998000A1, “COMBINATION THERAPY FOR CANCER” (priority 2014, dated 2016):

What was measured:
tumour cells [1] = conditions: for Cytotoxicity E. coli: change of drug cytotoxicity on tumour cells after co-incubation with E. coli, bacteria removed by filtration, MTS, Up/Down/NC
[2] = test system: Subcutaneous flank CT26 tumours; experiment: murine model of intratumoural bacterial effects on chemotherapy
tumour cells [3] = experiment: in vitro cytotoxicity screen of drugs co-incubated with L. welshimeri (tumour cell survival assay, MTS); conditions: change of drug cytotoxicity on tumour cells after co-incubation with L. welshimeri, bacteria removed by filtration, Up/Down/NC
4T1 Luc cells = experiment: tumour cell survival assay, drug co-incubated with E. coli, supernatant applied to 4T1 Luc cells; assay type: cell-based, mouse; conditions: gemcitabine 10 µM co-incubated with E. coli at different cfu/ml, Figure 1b

| SMILES | Cytotoxicity E. coli (tumour cells [1]) | also measured |
| --- | --- | --- |
| Nc1nc(=O)[nH]cc1F [5-fluorocytosine] | Up |  |
| OC[C@H]1O[C@@H](n2cnc3c(S)ncnc32)C[C@@H]1O [6-Mercaptopurine-2’-deoxyriboside] | Up |  |
| CC1(C)CCC2=C(O1)c1ccccc1C(=O)C2=O [B-Lapachone] | Down |  |
| NC(=O)c1cc(N2CC2)c([N+](=O)[O-])cc1[N+](=O)[O-] [CB1954] | Up | median survival post Day 0 ([2]; CB1954 + bacteria group: E. coli i.t., CB1954 20 mg/kg i.p.): 26 days; median survival post Day 0 ([2]; CB1954 alone group: PBS i.t., CB1954 20 mg/kg i.p.): 8 days; Cytotoxicity L. welshimeri (tumour cells [3]): Up |
| Nc1nc(Cl)nc2c1ncn2[C@H]1C[C@H](O)[C@@H](CO)O1 [Cladribine] | Down | Cytotoxicity L. welshimeri (tumour cells [3]): Down |
| COc1cccc2c1C(=O)c1c(O)c3c(c(O)c1C2=O)C[C@@](O)(C(C)=O)C[C@@H]3O[C@H]1C[C@H](N)[C@H](O)[C@H](C)O1 [Daunorubicin] | Down | Cytotoxicity L. welshimeri (tumour cells [3]): Down |
| COc1cccc2c1C(=O)c1c(O)c3c(c(O)c1C2=O)C[C@@](O)(C(=O)CO)C[C@@H]3O[C@H]1C[C@H](N)[C@H](O)[C@H](C)O1 [Doxorubicin] | Down |  |
| COc1cc([C@@H]2c3cc4c(cc3[C@@H](O[C@@H]3O[C@@H]5CO[C@@H](C)O[C@H]5[C@H](O)[C@H]3O)[C@H]3COC(=O)[C@H]23)OCO4)cc(OC)c1OP(=O)(O)O [Etoposide phosphate] | decreasing and Down |  |
| Nc1nc(F)nc2c1ncn2[C@@H]1O[C@H](COP(=O)(O)O)[C@@H](O)[C@@H]1O [Fludarabine de phosphate] | Up | Cytotoxicity L. welshimeri (tumour cells [3]): Up |
| Nc1ccn([C@@H]2O[C@H](CO)[C@@H](O)C2(F)F)c(=O)n1 [Gemcitabine] | decreasing and Down | efficacy (tumour cell survival) (4T1 Luc cells): decreased; cytotoxicity after incubation with heat-inactivated lysate (or intact bacteria) (tumour cells [1]; gemcitabine 10 µM, E. coli heat-inactivated at 95 °C, Figure 2): no reduction in cytotoxicity; tumour volume ([2]; gemcitabine + bacteria group compared with gemcitabine alone group, various time points, gemcitabine 60 mg/kg i.p., E. coli i.t.): Significantly increased; median survival post Day 0 ([2]; gemcitabine + bacteria group: E. coli i.t., gemcitabine 60 mg/kg i.p.): 17 days; median survival post Day 0 ([2]; gemcitabine alone group: PBS i.t., gemcitabine 60 mg/kg i.p.): 28 days |
| CC(=O)[C@]1(O)Cc2c(O)c3c(c(O)c2[C@@H](O[C@H]2C[C@H](N)[C@H](O)[C@H](C)O2)C1)C(=O)c1ccccc1C3=O [Idarubicin] | Down |  |
| CC1=CC(=O)c2ccccc2C1=O [Menadione] | Down |  |
| O=C1c2c(O)ccc(O)c2C(=O)c2c(NCCNCCO)ccc(NCCNCCO)c21 [Mitoxantrone] | Down |  |
| O=c1[nH]c(=O)n(C2CCCO2)cc1F (centres unmarked) [Tegafur] | increasing and Up |  |
| Nc1ncnc2c1ncn2[C@@H]1O[C@H](CO)[C@@H](O)[C@@H]1O [Vidarabine] | decreasing and Down |  |
